From patent US12611380B2, “Solution and method for reducing the virulence of viruses, bacteria, yeasts, or fungus” (priority 2020, dated 2026)
Values after ≈ are worked out from the molar mass of the structure shown. Values joined by “and” are separate entries in the source; they are usually repeats but may differ in a detail not shown here. Equal values may be shown once. Starred links: 1 amine or outer side, 2 acyl side, 3 side chain; linkers in the order of their positions; H or OH if unused. Positions of bridges follow the written chain, without caps; N, C: chain ends. Non-standard residues stand in square brackets, D forms with d. Residues, ends and D or L forms follow the SMILES beside them. *: point of attachment. hTyr(3S-OH,4S-OH,3'-OSO3H) = N[C@H](C(=O)O)[C@H](O)[C@@H](O)c1ccc(O)c(OS(=O)(=O)O)c1; Orn(4R-OH,5R-OH) = O=C([C@H](C[C@@H](O)[C@@H](O)N[*:3])N[*:1])[*:2]; Pro(3S-OH,4S-Me) = C[C@H]1CN[C@H](C(=O)O)[C@H]1O; X1 = CCCCCOc1ccc(-c2cc(-c3ccc(C(=O)*)cc3)no2)cc1; Gln(3R-OH) = NC(=O)C[C@@H](O)[C@H](N)C(=O)O; Hyp = O=C(O)[C@@H]1C[C@@H](O)CN1

Tests used:
[1] = format: physicochemical; conditions: for Viscosity: 6% of the named additive added to 8% ILCS (potassium) hydro-gel; for reduction in viscosity: 6% additive in ILCS gel, 140° F. 1-3 days then 108° F. 2-4 days
Protocol: A simple viscometer, Digital Viscosity Meter (NDJ-8S, Shaoxing Worner Lab Equipment Co., Ltd., China) was used, recognizing the limitations of measuring a solid gelatin hydro-gel. […] The ILCS was initially incubated at 120° F. overnight, equilibrated at […]. prior to viscometry.
ILCS was made from potassium hydroxide (Spectrum Chemical, Louisville, KY), isomerized linoleic acid (Stepan, New Jersey), and USP WFI water (Ceela Naturals), to a final concentration 8% or 333 mM Potassium Linoleate (isomerized).
Many of the amino acids tested were purchased from Ajinomoto (NJ, USA), while tryptophan, proline, and phenylalanine were obtained from Purebulk (Oregon, USA). The Quorum Sensing Agent phenylethanol was purchased from Sigma Aldrich (GA, USA).
The gel and compound were incubated at 140° F. for 1-3 days followed by incubation 108° F. for 2-4 days.

Candida auris, (AR-0381) = conditions: isolate AR Isolate Bank #0381; cited from earlier work
SARS-COV-2 = assay: Virucidal assay, 2 minutes contact, end-point titer (CCID50) on Vero 76 cells; conditions: Ethanol 63%, 2 minutes
microbial growth = assay: Reduction in microbial growth; format: cell-based; conditions: potassium hexadiene at pH 9
[2] = test system: Candida albicans (ATCC 10231); assay: EPA protocol MB-35-00 hard surface carrier disinfection test
Protocol: (§1) We used EPA protocol MB-35-00 for testing disinfectants against C. auris (US Environmental Protection Agency. 2017, 2020) and C. albicans ATCC 10231, a yeast common in package spoilage of food and cosmetics.
(§2) We tested 5 batches produced with difference sources of isomerized linoleic acid (Test Substances 1-5).
(§3) The EPA test protocol for testing hard surface disinfection of C. auris (AR0381) with antifungal resistance includes an overnight culture of C. auris (AR.0381) shaken at 200 rpm at 30° C. From this culture, 8 mL was harvested by centrifugation, re-suspended in 2-3 mL phosphate-buffered saline (PBS), and mixed with a 3-part soil load including bovine serum albumin (BSA), yeast extract, and mucin. Metal carriers (10 mm) were inoculated (10 μL culture+soil load) and dried in a desiccator under vacuum (˜70 min). The disk surface was coated with the test substance at 0.42 M (50 μL) for up to 10 min. Following incubation, the carriers were transferred to 10 mL neutralization solution (Sabouraud Dextrose Broth [SDB], a common yeast-mold growth media) for subsequent harvesting on membrane filters. The filtered membranes were transferred to Sabouraud Dextrose Emmons Agar (SDEA) plates to culture for 120 hours at 31° C. Controls consisted of PBS (50 μL) applied to inoculated metal disk carriers, subsequently transferred to 10 mL neutralization solution (SDB), diluted serially in PBS, and plated directly to SDEA plates, See FIG. 2.
(§4) We prepared and qualified these per EPA protocol (US Environmental Protection Agency, 2017). • Soil Stocks: We prepared soil stocks with yeast extract powder (Ref RM027) purchased from Himedia, BSA (A2153) purchased from Sigma Life Science, and gastric mucin (cat #HY-B2196/CS-7626) purchased from Mod Chem Express per SOP MB-35-00 (US Environmental Protection Agency, 2017). • Cell Harvesting: We removed cells from the growth culture media using a Micro-Centrifuge obtained from Changzhou Jintan Sanhe Instrument Co., LTD. (Model TGI6-W) at 10,000×g for 10 min in screw-top-cap vials purchased from Heathrow Scientific (Item HS 100600). The optical density of the inoculate was defined at 15-19 OD600 in PBS with the Ultrospec 10 Cell Density Meter from BioChrom (Holliston, MA, USA) prior to dilution in the soil load. Samples were diluted 1:10 in PBS to obtain absorbance readings between 1.5 and 1.9. • Membrane Filtration: Treated yeasts were collected using a combination of the Rocker (Cat #200300-01) and 47 mm PES membranes with a 0.45 micron pore size obtained from Sterlitech (Catalog #PE54547100).

[3] = second experiment, Tables 8 and 9
[4] = second experiment, positive control, Table 5
[5] = all testing runs (Tables 2 and 3)

Protocol for Candida auris (AR-0381): as §1, §2, §3, §4

| Molecule | Viscosity [1] | MIC (Candida auris, (AR-0381)) | also measured |
| --- | --- | --- | --- |
| CC(C)(CO)C(O)C(=O)NCCCO (stereo not drawn) [D L Panthenol] | 28650 milliPoise |  |  |
| CC(C)[C@H](N)C(=O)O [Valine] | 31850 milliPoise |  |  |
| Cl.NCCCC[C@H](N)C(=O)O [Lysine-hcl] | 30700 milliPoise |  |  |
| C[C@@H](O)[C@H](N)C(=O)O [Threonine] | 30650 milliPoise |  |  |
| N[C@@H](Cc1c[nH]c2ccccc12)C(=O)O [Tryptophan] | 21 milliPoise |  | reduction in viscosity [1]: two log-reduction in viscosity |
| CSCC[C@H](N)C(=O)O [Methionine] | 32350 milliPoise |  |  |
| N=C(N)NCCC[C@H](N)C(=O)O [Arginine] | 25600 milliPoise |  |  |
| C[C@@H](c1ncncc1F)[C@](O)(Cn1cncn1)c1ccc(F)cc1F [Voriconazole] |  | 0.03 µg/mL (≈ 0.0859 µM) |  |
| C[C@@H]1[C@H](O)[C@@H](C)/C=C/C=C/C=C/C=C/C=C/C=C/C=C/[C@H](O[C@@H]2O[C@H](C)[C@@H](O)[C@H](N)[C@@H]2O)C[C@@H]2O[C@](O)(C[C@@H](O)C[C@@H](O)[C@H](O)CC[C@@H](O)C[C@@H](O)CC(=O)O[C@H]1C)C[C@H](O)[C@H]2C(=O)O [Amphotericin 81] |  | 0.38 µg/mL (≈ 0.411 µM) |  |
| N[C@@H](CO)C(=O)O [Serine] | 22300 milliPoise |  |  |
| N[C@@H](Cc1c[nH]cn1)C(=O)O [Histidine base] | 28050 milliPoise |  |  |
| CCC(C)n1ncn(-c2ccc(N3CCN(c4ccc(OCC5COC(Cn6cncn6)(c6ccc(Cl)cc6Cl)O5)cc4)CC3)cc2)c1=O (stereo not drawn) [Iuaconazole, itraconazole] |  | 0.13 µg/mL (≈ 0.184 µM) |  |
| CCO [Ethanol, reference compound] |  |  | toxicity to cells in titer plates (Vero 76 cells): toxic to cells; LRV (log reduction value) (SARS-COV-2; Table 7): >1.8; Virus Titer (SARS-COV-2; Table 7): <1.7 Log10 CCID50of virus per 0.1 mL; LRV (log reduction value) (SARS-COV-2; positive control, Table 4): >1.8; Virus Titer (SARS-COV-2; positive control, Table 4): <1.7 Log10 CCID50 of virus per 0.1 mL; LRV (log reduction value) (SARS-COV-2; [3]): >2.0; Virus Titer (SARS-COV-2; [3]): <1.7 Log10 CCID50of virus per 0.1 mL; LRV (log reduction value) (SARS-COV-2; [4]): >2.0; Virus Titer (SARS-COV-2; [4]): <1.7 Log10 CCID50 of virus per 0.1 mL |
| CC(C)(CO)[C@@H](O)C(=O)NCCCO [D Panthenol] | 31600 milliPoise |  |  |
| C[C@H](N)C(=O)O [Alanine] | 40700 milliPoise |  |  |
| CC[C@H](C)C[C@H](C)CCCCCCCCC(=O)N[C@H]1C[C@@H](O)[C@@H](NCCN)NC(=O)[C@@H]2[C@@H](O)CCN2C(=O)[C@H]([C@H](O)CCN)NC(=O)[C@H]([C@H](O)[C@@H](O)c2ccc(O)cc2)NC(=O)[C@@H]2C[C@@H](O)CN2C(=O)[C@H]([C@@H](C)O)NC1=O [Caspofungin] |  | 0.13 µg/mL (≈ 0.119 µM) |  |
| N[C@@H](CC(=O)O)C(=O)O [Aspartic acid] | 25100 milliPoise |  |  |
| CCCCCOc1ccc(-c2cc(-c3ccc(C(=O)N[C@H]4C[C@@H](O)[C@@H](O)NC(=O)[C@@H]5[C@@H](O)[C@@H](C)CN5C(=O)[C@H]([C@H](O)CC(N)=O)NC(=O)[C@H]([C@H](O)[C@@H](O)c5ccc(O)c(OS(=O)(=O)O)c5)NC(=O)[C@@H]5C[C@@H](O)CN5C(=O)[C@H]([C@@H](C)O)NC4=O)cc3)no2)cc1 [Micafungin] (X1-[Orn(4R-OH,5R-OH)]T[Hyp][hTyr(3S-OH,4S-OH,3'-OSO3H)][Gln(3R-OH)][Pro(3S-OH,4S-Me)]; lactam 1-C) |  | 0.13 µg/mL (≈ 0.102 µM) |  |
| OC(Cn1cncn1)(Cn1cncn1)c1ccc(F)cc1F [Fluconazolc, fluconazole] |  | 4.00 µg/mL (≈ 13.1 µM) |  |
| Cl.N[C@@H](CS)C(=O)O [Cysteine-HCl] | 28400 milliPoise |  |  |
| NCCCC[C@H](N)C(=O)O [Lysine base] | 26900 milliPoise |  |  |
| CC[C@@H]([C@H](C)O)n1ncn(-c2ccc(N3CCN(c4ccc(OC[C@@H]5CO[C@@](Cn6cncn6)(c6ccc(F)cc6F)C5)cc4)CC3)cc2)c1=O [Posaconazolc, posaconazole] |  | 0.06 µg/mL (≈ 0.0856 µM) |  |
| CC[C@H](C)[C@H](N)C(=O)O [Iso-Leucine] | 29900 milliPoise |  |  |
| NC(=O)c1cccnc1 [Niacinamide] | 33800 milliPoise |  |  |
| Nc1[nH]c(=O)ncc1F [Flucytosine] |  | 2.00 µg/mL (≈ 15.5 µM) |  |
| N[C@@H](Cc1ccccc1)C(=O)O [Phenylalanine] | 130 milliPoise |  | reduction in viscosity [1]: two log-reduction in viscosity |
| Anidulaftrngin |  | 0.25 µg/mL |  |
| C/C=C/C=C/C(=O)[O-].[K+] [Potassium Sorbate, Potassium sorbate] |  |  | reduction in microbial growth (microbial growth): little reduction in microbial growth; Test Disks Density (log) (Candida auris (AR-0381); Exposure 2 min., yeast recovered from treated carriers): 5.0 log and 4.9 log; kill rates (Candida auris (AR-0381); [5]): less than one log; Test Disks Density (log) ([2]; Exposure 1 min., yeast recovered from treated carriers): 4.8 log and 4.9 log; kill rates [2, 5]: less than one log |
